# Laboratory results as given in US20250282799A1, “SUBSTITUTED PYRIDO[4,3-d]PYRIMIDINES AS KRAS MODULATORS” (Alterome Therapeutics, Inc., priority 2023, published 2025).
# Test system: KRAS G12V dependent lung adenocarcinoma cell line, NCI-H441
# Experiment: Cellular pERK (Thr202/Tyr204) FRET/HTRF assay
# Assay type: cell-based
# Conditions: Homo sapiens, NCI-H441, cellular pERK (Thr202/Tyr204) HTRF, NCI-H441 cells
# Method in brief: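 Using a mix-and-read HTRF kit, phospho-ERK (Thr202/Tyr204) was detected in NCI-H441 lysates following 1 hr compound incubation at 37 °C, 5% CO2. Cells had been seeded overnight beforehand, and IC50 was derived by curve fitting.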
row,Compound,IC50 [nM]
1,"[2H]C1([2H])CC[C@@]2(C([2H])([2H])Oc3nc(N4CCOC[C@H]5[C@H](F)[C@H]54)c4cnc(-c5cc(N)cc6ccc(F)c(C#C)c56)c(F)c4n3)C[C@@]([2H])(F)CN12 [Example 193, 5-ethynyl-6-fluoro-4-(8-fluoro-4-((1S,7S,8S)-8-fluoro-5-oxa-2-azabicyclo[5.1.0]octan-2-yl)-2-(((2R,7aS)-2-fluorotetrahydro-1H-pyrrolizin-7a(5H)-yl-2,5,5-d3)methoxy-d2)pyrido[4,3-d]pyrimidin-7-yl)naphthalen-2-amine]",< 50
2,"C#Cc1c(F)ccc2cc(N)cc(-c3ncc4c(N5CCOC[C@H]6[C@H](F)[C@H]65)nc(OC[C@]56C[C@]7(CN5CCC65CC5)CC7(F)F)nc4c3F)c12 (single isomer, unassigned) [Example 219]",< 50
3,"[2H]C([2H])(Oc1nc(N2CCOC[C@H]3[C@H](F)[C@H]32)c2cnc(-c3cc(N)cc4ccc(F)c(C#C)c34)c(F)c2n1)[C@@]12CCCN1C[C@@H](Cl)C2 (single isomer, unassigned) [Example 237]",< 50
4,"[2H]C([2H])([2H])Oc1c(F)c(F)c(F)c2cc(N)cc(-c3ncc4c(N5CCOC[C@H]6[C@H](F)[C@H]65)nc(OC[C@]56CC(=C)CN5CCC65CC5)nc4c3F)c12 [Example 120, 6,7,8-trifluoro-4-(8-fluoro-4-((1S,7S,8S)-8-fluoro-5-oxa-2-azabicyclo[5.1.0]octan-2-yl)-2-(((R)-6′-methylenetetrahydrospiro[cyclopropane-1,1′-pyrrolizin]-7a′(5′H)-yl)methoxy)pyrido[4,3-d]pyrimidin-7-yl)-5-(methoxy-d3)naphthalen-2-amine]",< 50
5,"[2H]C([2H])(Oc1nc(N2CCOC[C@H]3[C@H](F)[C@H]32)c2cnc(-c3cc(N)cc4cccc(C#C)c34)c(F)c2n1)[C@@]12CCCN1C[C@H](F)C2 [Example 268, 5-ethynyl-4-(8-fluoro-4-((1S,7S,8S)-8-fluoro-5-oxa-2-azabicyclo[5.1.0]octan-2-yl)-2-(((2R,7aS)-2-fluorotetrahydro-1H-pyrrolizin-7a(5H)-yl)methoxy-d2)pyrido[4,3-d]pyrimidin-7-yl)naphthalen-2-amine]",< 50
6,"[2H]C([2H])([2H])Oc1c(F)c(F)c(F)c2cc(N)cc(-c3ncc4c(N5CCOC[C@@H]6[C@H]5[C@@]6([2H])F)nc(OC([2H])([2H])[C@@]56CCCN5C[C@H](F)C6)nc4c3F)c12 [Example 119, 6,7,8-trifluoro-4-(8-fluoro-4-((1S,7S,8S)-8-fluoro-5-oxa-2-azabicyclo[5.1.0]octan-2-yl-8-d)-2-(((2R,7aS)-2-fluorotetrahydro-1H-pyrrolizin-7a(5H)-yl)methoxy-d2)pyrido[4,3-d]pyrimidin-7-yl)-5-(methoxy-d3)naphthalen-2-amine]",< 50
7,"[2H]C([2H])(Oc1nc(N2CCOC[C@H]3[C@H](Cl)[C@H]32)c2cnc(-c3cc(N)cc4cccc(C#C)c34)c(F)c2n1)[C@@]12CCCN1[C@H](C)[C@H](F)C2 [Example 348, 4-(4-((1S,7S,8S)-8-chloro-5-oxa-2-azabicyclo[5.1.0]octan-2-yl)-8-fluoro-2-(((2R,3R,7aS)-2-fluoro-3-methyltetrahydro-1H-pyrrolizin-7a(5H)-yl)methoxy-d2)pyrido[4,3-d]pyrimidin-7-yl)-5-ethynylnaphthalen-2-amine]",< 50
8,"C#Cc1c(F)ccc2cc(N)cc(-c3ncc4c(N5CCOC[C@H]6[C@H](F)[C@H]65)nc(OC[C@@]56CCCN5CC5(CC5)C6)nc4c3F)c12 [Example 187, 4-(2-(((S)-dihydro-1′H,3′H-spiro[cyclopropane-1,2′-pyrrolizin]-7a′(5′H)-yl)methoxy)-8-fluoro-4-((1S,7S,8S)-8-fluoro-5-oxa-2-azabicyclo[5.1.0]octan-2-yl)pyrido[4,3-d]pyrimidin-7-yl)-5-ethynyl-6-fluoronaphthalen-2-amine]",< 50
9,"C#Cc1c(F)ccc2cccc(-c3ncc4c(N5CCCC[C@H]6[C@H](F)[C@H]65)nc(OC[C@]56C/C(=C\F)CN5CCC65CC5)nc4c3F)c12 [Example 377, (R,E)-7a′-(((7-(8-ethynyl-7-fluoronaphthalen-1-yl)-8-fluoro-4-((1S,7R,8S)-8-fluoro-2-azabicyclo[5.1.0]octan-2-yl)pyrido[4,3-d]pyrimidin-2-yl)oxy)methyl)-6′-(fluoromethylene)hexahydrospiro[cyclopropane-1,1′-pyrrolizine]]",< 50
10,"[2H]C([2H])([2H])Oc1c(F)cc(F)c2cc(N)cc(-c3ncc4c(N5CCOC[C@H]6[C@H](F)[C@H]65)nc(OC[C@@]56CCCN5C/C(=C\F)C6)nc4c3F)c12 [Example 172, 6,8-difluoro-4-(8-fluoro-4-((1S,7S,8S)-8-fluoro-5-oxa-2-azabicyclo[5.1.0]octan-2-yl)-2-(((S,Z)-2-(fluoromethylene)tetrahydro-1H-pyrrolizin-7a(5H)-yl)methoxy)pyrido[4,3-d]pyrimidin-7-yl)-5-(methoxy-d3)naphthalen-2-amine]",< 50

# Same assay, conditions: Homo sapiens, NCI-H441, cellular pERK HTRF, NCI-H441 (KRAS G12V) cells
row,Compound,IC50 [nM]
1,"[2H]C([2H])(Oc1nc(N2CCOC[C@H]3[C@H](F)[C@H]32)c2cnc(-c3cc(O)cc4ccc(F)c(C#C)c34)c(C)c2n1)[C@]12CC(=C)CN1CCC21CC1 [Example 448, 5-Ethynyl-6-fluoro-4-(4-((1S,7S,8S)-8-fluoro-5-oxa-2-azabicyclo[5.1.0]octan-2-yl)-8-methyl-2-(((R)-6′-methylenetetrahydrospiro[cyclopropane-1,1′-pyrrolizin]-7a′(5′H)-yl)methoxy-d2)pyrido[4,3-d]pyrimidin-7-yl)naphthalen-2-ol]",< 50

# Same assay, conditions: Homo sapiens, NCI-H441, pERK HTRF, NCI-H441 cells (KRAS G12V)
row,Compound,IC50 [nM]
1,"C#Cc1c(F)ccc2cc(N)cc(-c3ncc4c(N5CCCC[C@@H]6C[C@@H]65)nc(OC[C@@]56CCCN5C[C@H](F)C6)nc4c3F)c12 [Example 4, 4-(4-((1S,7R)-2-azabicyclo[5.1.0]octan-2-yl)-8-fluoro-2-(((2R,7aS)-2-fluorotetrahydro-1H-pyrrolizin-7a(5H)-yl)methoxy)pyrido[4,3-d]pyrimidin-7-yl)-5-ethynyl-6-fluoronaphthalen-2-amine]",500 to 10000
2,"[2H]C([2H])(Oc1nc(N2CCCO[C@H]3C[C@H]32)c2cnc(-c3cc(O)cc4ccc(F)c(C#C)c34)c(F)c2n1)[C@@]12CCCN1C[C@H](F)C2 [Example 10, 4-(4-((1S,7R)-2-Oxa-6-azabicyclo[5.1.0]octan-6-yl)-8-fluoro-2-(((2R,7aS)-2-fluorotetrahydro-1H-pyrrolizin-7a(5H)-yl)methoxy-d2)pyrido[4,3-d]pyrimidin-7-yl)-5-ethynyl-6-fluoronaphthalen-2-ol]",< 50
3,"[2H]C([2H])(Oc1nc(N2CCCC[C@H]3[C@H](F)[C@H]32)c2cnc(-c3cccc4cc(F)c(F)c(C#C)c34)c(F)c2n1)[C@@]12CCCN1C[C@H](F)C2 [Example 79, 7-(8-Ethynyl-6,7-difluoronaphthalen-1-yl)-8-fluoro-4-((1S,7R,8S)-8-fluoro-2-azabicyclo[5.1.0]octan-2-yl)-2-(((2R,7aS)-2-fluorotetrahydro-1H-pyrrolizin-7a(5H)-yl)methoxy-d2)pyrido[4,3-d]pyrimidine]",< 50
4,"[2H]C([2H])(Oc1nc(N2CCCC[C@H]3[C@H](F)[C@H]32)c2cnc(-c3cncc4ccc(F)c(Cl)c34)c(F)c2n1)[C@@]12CCCN1C[C@H](F)C2 [Example 85, 7-(5-Chloro-6-fluoroisoquinolin-4-yl)-8-fluoro-4-((1S,7R,8S)-8-fluoro-2-azabicyclo[5.1.0]octan-2-yl)-2-(((2R,7aS)-2-fluorotetrahydro-1H-pyrrolizin-7a(5H)-yl)methoxy-d2)pyrido[4,3-d]pyrimidine]",50 to 500

# Same assay, conditions: cellular pERK (Thr202/Tyr204) HTRF, NCI-H441 cells
row,Compound,IC50 [nM]
1,"[2H]C([2H])(Oc1nc(N2CCOC[C@H]3[C@H](F)[C@H]32)c2cc(C(F)(F)F)c(-c3ccc(F)c4sc(N)c(C#N)c34)c(F)c2n1)[C@@]12CCCN1C[C@H](F)C2 (atropisomer, axis not shown; (aS)) [Example 390, 2-amino-7-fluoro-4-((R)-8-fluoro-4-((1S,7S,8S)-8-fluoro-5-oxa-2-azabicyclo[5.1.0]octan-2-yl)-2-(((2R,7aS)-2-fluorotetrahydro-1H-pyrrolizin-7a(5H)-yl)methoxy-d2)-6-(trifluoromethyl)quinazolin-7-yl)benzo[b]thiophene-3-carbonitrile]",< 50
2,"[2H]C([2H])(Oc1nc(N2CCOC[C@H]3[C@H](F)[C@H]32)c2cc(F)c(-c3cc(N)cc4ccc(F)c(C#C)c34)c(F)c2n1)[C@@]12CCCN1C[C@H](F)C2 (atropisomer, axis not shown; (aS)) [Example 400, 4-((S)-6,8-difluoro-4-((1S,7S,8S)-8-fluoro-5-oxa-2-azabicyclo[5.1.0]octan-2-yl)-2-(((2R,7aS)-2-fluorotetrahydro-1H-pyrrolizin-7a(5H)-yl)methoxy-d2)quinazolin-7-yl)-5-ethynyl-6-fluoronaphthalen-2-amine]",500 to 10000
3,"[2H]C([2H])(Oc1nc(N2CCOC[C@H]3[C@H](F)[C@H]32)c2cc(C#N)c(-c3cc(N)cc4ccc(F)c(C#C)c34)c(F)c2n1)[C@@]12CCCN1C[C@H](F)C2 (atropisomer, axis not shown; (aS)) [Example 358, (S)-7-(3-amino-8-ethynyl-7-fluoronaphthalen-1-yl)-8-fluoro-4-((1S,7S,8S)-8-fluoro-5-oxa-2-azabicyclo[5.1.0]octan-2-yl)-2-(((2R,7aS)-2-fluorotetrahydro-1H-pyrrolizin-7a(5H)-yl)methoxy-d2)quinazoline-6-carbonitrile]",< 50
